# Reference: US9457016B2, “Methods for treating polycystic kidney disease” (New York University, priority 2013, dated 2016)
# Legend:
# ADPKD cells [1] = experiment: 8-bromo-cAMP stimulated proliferation, MTT assay; type: cell-based, human; conditions: 8-bromo-cAMP + BPTES
# ADPKD cells [2] = experiment: Cyst formation of ADPKD cells plated in collagen, forskolin stimulated; type: cell-based, human
# Protocol: FIG. 1. […] Images are at 10×. BF=bright field.
# FIG. 2. Quantification of cyst size and cyst number in ADPKD cells incubated with or without BPTES. Total number of cysts in FIG. 1 was counted and stratified by cyst size. Asterisks indicate statistically significant findings.
# FIG. 10. siRNA to Gls1 inhibits cyst formation of ADPKD cells. ADPKD cells were transfected with a control or siRNA to Gls1 and cyst formation was assessed. Number of cysts in control (blue), siRNA transfected cells (green), or siRNA transfected cells cultured with dimethyl α-ketoglutarate (red).
# FIG. 10 depicts results from experiments using siRNA to Gls1 to determine the effects of same on cyst formation of ADPKD cells. […] The following are exemplary siRNA sequences used for inhibition of Gls1 […] (SEQ ID NO: 1); SASI_Hs01_00071573-[…][dT][dT] (SEQ ID NO: 2); 2260 NM_014905-[…] (SEQ ID NO: 3); SASI_Hs01_00071574-[…][dT][dT] (SEQ ID NO: 4); 1081 NM_014905-[…] (SEQ ID NO: 5).
# The present inventors have made the surprising discovery that inhibiting glutaminase 1 (gls1) blocks cyst formation and proliferation by ADPKD cells. […] ADPKD cells were plated in collagen and stimulated with the cyclic 3′-5′-adenosine monophosphate (cAMP) agonist forskolin. […] The results are depicted graphically in FIG. 2, wherein the data were stratified according to both the number of observable cysts and their size.
# ADPKD cells [3] = experiment: Forskolin-induced proliferation, MTT assay; type: cell-based, human; conditions: co-culture of ADPKD cells with α-ketoglutarate
# Protocol: FIG. 3. […] Proliferation was then quantitated 24 hours later using the MTT assay kit (Promega).
# Elevated intracellular concentration of cAMP is characteristic of ADPKD cells in vivo and mediates activation of signaling pathways that lead to proliferation of ADPKD cells. Gls1 is also critical for proliferation of ADPKD cells.
# [4] = test system: Pkd1^fl/fl; Pkhd1-Cre mice; experiment: Pkd1fl/fl; Pkhd1-Cre mouse model of ADPKD; type: in vivo
# Source text: As described in Karihaloo et al. (2011, J Am Soc Nephrol 22: 1809-1814), Pkd1^fl/fl; Pkhd1-Cre mice may be generated by crossing Pkd1fl/fl mice with Pkhd1-Cre mice13 so as to achieve kidney-specific deletion of the Pkd1 allele. See also Shibazaki et al. (2008, Hum Mol Genet 17, 1505-1516) and Patel et al. (2008, Hum Mol Genet 17, 1578-1590). The entire content of each of Karihaloo et al., Shibazaki et al., and Patel et al. is incorporated herein by reference.
# Pkhd-Cre Mice: This is a very robust and reproducible early model of PKD. The Somlo lab has shown that Pkhd-cre expresses and deletes predominantly in collecting tubules Ma et al. (2013, Nature genetics, 45: 1004-1012; the entire content of which is incorporated herein by reference).
# mTor [5] = experiment: mTOR activation by anti-phospho-S6 immunoblot after amino acid refeeding; type: cell-based, human; conditions: ADPKD cells refed glutamine and lysine 30 or 60 minutes after 3 hours amino acid deprivation
# Protocol: FIG. 14. […] Cells were then lysed and mTOR activation was assessed by immunoblotting with anti-phospho-S6 antibodies (pS6). To control for loading, the same samples were immunoblotted with antibodies to actin (Actin).
# [6] = test system: PKD1^flox/flox; Tamoxifen-Cre mice; type: in vivo; conditions: BPTES 12.5 mg/kg IP BID, postnatal day 15-32, N=4, vs vehicle control
# Protocol: FIG. 12A-C. […] Mice were sacrificed on day 32 and analyzed. (A) Scan of sagittal section of littermates treated with BPTES or vehicle control; (B) Kidney wt/body wt; (C) cystic index.
# Cre recombinase was induced on postnatal day 10 by administering tamoxifen (10 mg/40 g) intraperitoneally (IP) on two consecutive days. […] Only same sexed mice from same litters were compared.
# Early Models. PKD1^flox/flox; Tamoxifen-Cre Mice: The present inventors obtained the tamoxifen-Cre mouse model from G. Germino. For early onset disease, Cre recombinase is induced at day 10 by administering tamoxifen (10 mg/40 g) intraperitoneally (IP) on 2 consecutive days as described in FIG. 12 above and in Piontek et al. (2007, Nature medicine, 13: 1490-1495; the entire content of which is incorporated herein by reference).
# ADPKD cells [7] = experiment: Seahorse analysis of ATP production and mitochondrial oxygen consumption; type: cell-based, human
# Protocol: FIG. 13A-B. Seahorse analysis of ADPKD cells. ADPKD cells that were unstimulated or stimulated with forskolin in the presence or absence of BPTES and mitochondrial oxygen consumption was determined by seahorse analysis. (A) Schematic of the method and analysis. Oligomycin inhibits ATP synthase. FCCP is a mitochondrial uncoupler and leads to maximal OCR and rotenone interferes with electron transport. (B) Inhibition of ATP generation was also found by Seahorse analysis. ADPKD cells were unstimulated in the absence (C) or presence of BAPTES (B) or stimulated with forskolin in the absence (F) or presence of BPTES (FB).
# The decreased generation of α-ketoglutarate, which feeds directly into tricarboxylic acid (TCA) would be predicted to lead to decreased TCA intermediates required for mitochondrial respiration and ATP generation. Seahorse analysis (Seahorse Biosciences) was performed on ADPKD cells that were either unstimulated or stimulated with forskolin in the presence or absence of BPTES.
# mTor [8] = experiment: Recruitment of mTor to lysosome, immunofluorescence with LAMP; type: cell-based, human; conditions: ADPKD cells refed with amino acids (QL)
# Source text: (A) Schematic depicting mTor activation, which is mediated by the recruitment of mTor to the lysosome. (B) ADPKD cells were stimulated as in FIG. 14 and then subjected to immunofluorescence analysis with antibodies to LAMP (lysosomal associated membrane protein) which stains lysosomes and mTor. Co-localization is shown by a yellow signal following the merging of the green mTor signal and the red LAMP signal. Refeeding with amino acids (QL) led to colocalization or recruitment of mTor to the lysosome as manifested by yellow staining in the merged image (compare −QL with +QL), which was abolished by treatment with BPTES.
# ADPKD cells [9] = experiment: Intracellular ATP levels; type: cell-based, human; conditions: 24 hours
# Source text: α-ketoglutarate also feeds directly into the tricarboxylic acid (TCA) cycle and therefore metabolism of α-ketoglutarate is an important source of ATP from glutamine.
# GLS1 = target: T1, GLS1 (Homo sapiens, UniProt O94925); conditions: dimeric vs tetrameric GLS1; cited from earlier work
# T1 sequence (O94925 55-669): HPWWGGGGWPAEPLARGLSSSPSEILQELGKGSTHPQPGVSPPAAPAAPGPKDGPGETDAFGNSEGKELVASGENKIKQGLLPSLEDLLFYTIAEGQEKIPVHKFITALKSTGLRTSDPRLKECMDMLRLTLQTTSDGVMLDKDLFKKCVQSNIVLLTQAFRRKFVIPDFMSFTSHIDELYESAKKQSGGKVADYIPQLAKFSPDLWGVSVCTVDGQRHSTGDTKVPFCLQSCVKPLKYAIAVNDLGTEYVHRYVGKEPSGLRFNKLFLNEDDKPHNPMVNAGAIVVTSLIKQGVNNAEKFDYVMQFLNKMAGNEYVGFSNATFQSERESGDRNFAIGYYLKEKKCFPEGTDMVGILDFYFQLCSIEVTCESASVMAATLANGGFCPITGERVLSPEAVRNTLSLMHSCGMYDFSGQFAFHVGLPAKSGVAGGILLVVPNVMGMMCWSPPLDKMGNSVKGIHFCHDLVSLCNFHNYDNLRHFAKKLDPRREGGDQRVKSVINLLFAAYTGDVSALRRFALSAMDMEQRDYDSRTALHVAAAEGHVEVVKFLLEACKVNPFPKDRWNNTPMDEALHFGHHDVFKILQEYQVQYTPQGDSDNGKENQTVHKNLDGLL
# [10] = cited from earlier work
# [11] = BPTES 12.5 mg/kg IP QOD, postnatal day 10-24, vs vehicle control
# [12] = ADPKD cells in collagen, forskolin, cultured 2 weeks with or without BPTES
compound,measurement,setting,value
COC(=O)CCC(=O)C(=O)OC [dimethyl α-ketoglutarate],rescue of BPTES inhibition of proliferation,ADPKD cells [1],rescued the inhibition of proliferation
same,rescue of cyst formation in siRNA transfected cells,ADPKD cells [2]; dimethyl α-ketoglutarate added to the medium,statistically significant rescue of cyst formation
same,reversal of BPTES inhibition of proliferation,ADPKD cells [3],reversed the inhibition of proliferation by BPTES
O=C(Cc1ccccc1)Nc1nnc(CCSCCc2nnc(NC(=O)Cc3ccccc3)s2)s1 [BPTES],cyst volume,[4]; [11],significantly decreased
same,kidney size,[4]; [11],significantly decreased
same,kidney function,[4]; following BPTES administration,some preservation/restoration of kidney function was observed
same,number of cysts,ADPKD cells [2]; [12],markedly reduces the number of cysts
same,size of cysts,ADPKD cells [2]; [12],profoundly decreases the size of those cysts that are formed
same,mTor activation (pS6),mTor [5],inhibits mTor activation
same,cyst growth,[6],statistically significant inhibition of cyst growth
same,basal and forskolin stimulated ATP production,ADPKD cells [7],inhibited
same,basal and forskolin stimulated mitochondrial O2 consumption,ADPKD cells [7],inhibited
same,colocalization or recruitment of mTor to the lysosome,mTor [8],abolished
same,intracellular ATP levels,ADPKD cells [9],significant decrease
"CN(C)c1ccc(C2Nc3ccc4ccccc4c3C3=C2C(=O)CC(C)(C)C3)cc1Br (stereo not shown) [compound 968, 5-(3-bromo-4-(dimethylamino)phenyl)-2,2-dimethyl-2,3,5,6-tetrahydrobenzo[a]phenanthridin-4(1H)-one]",inhibition of GLS1 oligomeric forms,GLS1,only inhibits the nonactivated dimeric GLS1 and not the active tetramer
same,aqueous solubility,[10],poor aqueous solubility
